From ChEMBL document CHEMBL6114969, “Ultra-short lipopeptides containing d-amino acid exhibiting excellent stability and antibacterial activity against gram-positive bacteria” (Eur J Med Chem, 2025)
Converted amounts (≈) assume the structure as drawn. The source made the active and inactive calls. No cut-off for these calls is given here.

Tests used:
[1] = Retention time of compound by RP-HPLC analysis; format: physicochemical
Staphylococcus aureus [2] = experiment: Antibacterial activity against Staphylococcus aureus ATCC 29213 incubated for 18 to 24 hrs by broth microdilution method; format: functional; settings: time 18-24 hrs
[3] = test system: Staphylococcus epidermidis; experiment: Antibacterial activity against Staphylococcus epidermidis ATCC 12228 incubated for 18 to 24 hrs by broth microdilution method; format: functional; settings: time 18-24 hrs
Staphylococcus aureus [4] = experiment: Antibacterial activity against methicillin-resistant Staphylococcus aureus ATCC 33591 incubated for 18 to 24 hrs in presence of 0.5 mg/ml of chymotrypsin by broth microdilution method; format: functional; settings: time 18-24 hrs
Staphylococcus aureus [5] = experiment: Antibacterial activity against methicillin-resistant Staphylococcus aureus ATCC 33591 incubated for 18 to 24 hrs in presence of 2 mg/ml of pepsin by broth microdilution method; format: functional; settings: time 18-24 hrs
Staphylococcus aureus [6] = experiment: Antibacterial activity against methicillin-resistant Staphylococcus aureus ATCC 33591 assessed as fold change in MIC incubated for 18 to 24 hrs in presence of MgCl2 by broth microdilution method; format: functional; settings: time 18-24 hrs
Staphylococcus aureus [7] = experiment: Antibacterial activity against methicillin-resistant Staphylococcus aureus ATCC 33591 assessed as fold change in MIC incubated for 18 to 24 hrs in presence of 10 percent mouse serum by broth microdilution method; format: functional; settings: time 18-24 hrs
Staphylococcus aureus [8] = experiment: Synergistic bactericidal activity against persistent methicillin-resistant Staphylococcus aureus ATCC 33591 incubated for 18 to 24 hrs in presence of vancomycin by time-kill assay; format: functional, organism-based; settings: time 18-24 hrs
Staphylococcus aureus [9] = experiment: Synergistic bactericidal activity against persistent methicillin-resistant Staphylococcus aureus ATCC 33591 at high concentration incubated for 18 to 24 hrs in presence of gentamycin by time-kill assay; format: functional, organism-based; settings: time 18-24 hrs
Staphylococcus aureus [10] = experiment: Induction of drug resistance in methicillin-resistant Staphylococcus aureus ATCC 33591 at sub-MIC measured after 15 passages; format: functional, organism-based
Staphylococcus aureus [11] = experiment: Antibacterial activity against ciprofloxacin-resistant methicillin-resistant Staphylococcus aureus ATCC 33591 incubated for 18 to 24 hrs; format: functional; settings: time 18-24 hrs
Staphylococcus aureus [12] = experiment: Additive bactericidal activity against methicillin-resistant Staphylococcus aureus ATCC 33591 incubated for 18 to 24 hrs in presence of ciprofloxacin by time-kill assay; format: functional, organism-based; settings: time 18-24 hrs
Staphylococcus aureus [13] = experiment: Elimination of biofilm generation of methicillin-resistant Staphylococcus aureus ATCC 33591 incubated for 24 hrs by MTT assay; format: functional, organism-based
Staphylococcus aureus [14] = experiment: Bactericidal activity against methicillin-resistant Staphylococcus aureus ATCC 33591 at 4 times MIC incubated for 24 hrs in presence of 4 ug/ml LPS by absorbance based assay; format: functional, organism-based
Staphylococcus aureus [15] = experiment: Bactericidal activity against methicillin-resistant Staphylococcus aureus ATCC 33591 at 4 times MIC incubated for 24 hrs in presence of >64 ug/ml phosphatidylcholine by absorbance based assay; format: functional, organism-based
Staphylococcus aureus [16] = experiment: Induction of cytoplasmic membrane depolarization in methicillin-resistant Staphylococcus aureus ATCC 33591 incubated upto 20 mins by DiSC3-5 dye based analysis; format: functional, organism-based
Staphylococcus aureus [17] = experiment: Destruction of cell membrane in methicillin-resistant Staphylococcus aureus ATCC 33591 assessed as increase in red fluorescence intensity incubated for 2 hrs by PI staining based analysis; format: functional, organism-based
Staphylococcus aureus [18] = experiment: Destruction of cell membrane in methicillin-resistant Staphylococcus aureus ATCC 33591 measured upto 360 mins by absorbance based assay; format: functional, organism-based
[19] = Toxicity in Balb/c mouse assessed as survival rate at 20 to 40 mg/kg, ip measured after 7 days; format: organism-based; settings: in vivo, dose 20-40 mg/kg, time 7 day
[20] = Toxicity in Balb/c mouse assessed as survival rate at 20 mg/kg, ip measured after 7 days; format: organism-based; settings: in vivo, time 7 day
[21] = Toxicity in Balb/c mouse assessed as change in spleen co-efficient at 20 to 80 mg/kg, ip measured after 7 days; format: organism-based; settings: in vivo, 168 h, dose 20-80 mg/kg, time 7 day
[22] = Toxicity in Balb/c mouse assessed as change in key organs appearance at 20 to 40 mg/kg, ip measured after 7 days; format: organism-based; settings: in vivo, 168 h, dose 20-40 mg/kg, time 7 day
[23] = Toxicity in Balb/c mouse assessed as change in serum AST level at 20 to 80 mg/kg, ip measured after 7 days; format: organism-based; settings: in vivo, 168 h, dose 20-80 mg/kg, time 7 day
[24] = Toxicity in Balb/c mouse assessed as inflammatory cell infiltration in liver at 80 mg/kg, ip measured after 7 days by H and E staining based analysis; format: organism-based; settings: in vivo, 168 h, time 7 day
Staphylococcus aureus [25] = experiment: (§1) Antibacterial activity against methicillin-resistant Staphylococcus aureus ATCC 33591 infected in Balb/c mouse model of acute systemic infection assessed as reduction in bleeding in heart at 10 mg/kg, ip measured after 5 days by H and E staining based analysis; format: functional, organism-based; settings: time 5.0 day
Staphylococcus aureus [26] = experiment: Antibacterial activity against methicillin-resistant Staphylococcus aureus ATCC 33591 infected in Balb/c mouse model of acute systemic infection assessed as reduction in hypoplasia of white pulp in spleen at 10 mg/kg, ip measured after 5 days by H and E staining based analysis; format: functional, organism-based; settings: time 5.0 day
Staphylococcus aureus [27] = experiment: (§2) Antibacterial activity against methicillin-resistant Staphylococcus aureus ATCC 33591 infected in Balb/c mouse model of acute systemic infection assessed as reduction in inflammatory cell infiltration in kidney at 10 mg/kg, ip measured after 5 days by H and E staining based analysis; format: functional, organism-based; settings: time 5.0 day
Mus musculus = experiment: In vivo inhibition of inflammation in Balb/c mouse model of acute systemic infection infected with methicillin-resistant Staphylococcus aureus ATCC 33591 assessed as reduction in IL-1beta activity at 10 mg/kg, ip measured after 5 days; format: functional, organism-based; settings: time 5.0 day
Staphylococcus aureus [28] = experiment: as §2, with “pneumonia” for “acute systemic”, “lung” for “kidney”, “ip administered thrice at 4, 8 and 12 hrs post-infection” for “ip”, “24 hrs post-infection” for “5 days”; format: functional, organism-based; settings: time 20.0 hrs
Staphylococcus aureus [29] = experiment: as §1, with “pneumonia” for “acute systemic”, “lung” for “heart”, “ip administered thrice at 4, 8 and 12 hrs post-infection” for “ip”, “24 hrs post-infection” for “5 days”; format: functional, organism-based; settings: time 20.0 hrs
Staphylococcus aureus [30] = experiment: Antibacterial activity against methicillin-resistant Staphylococcus aureus ATCC 33591 infected in Balb/c mouse model of pneumonia infection assessed as reduction in alveolar contraction in lung at 10 mg/kg, ip administered thrice at 4, 8 and 12 hrs post-infection measured after 24 hrs post-infection by H and E staining based analysis; format: functional, organism-based
Staphylococcus aureus [31] = experiment: Antibacterial activity against methicillin-resistant Staphylococcus aureus ATCC 33591 infected in Balb/c mouse model of skin wound infection assessed as reduction in bacterial load in skin at 10 mg/kg, ip administered thrice at 1, 24 and 48 hrs post-infection measured after 72 hrs post-infection in presence of polymyxin B; format: functional, organism-based; settings: time 71.0 hrs
Staphylococcus aureus [32] = experiment: (§3) Antibacterial activity against methicillin-resistant Staphylococcus aureus ATCC 33591 infected in Balb/c mouse model of skin wound infection assessed as wound heal at 10 mg/kg, ip administered thrice at 1, 24 and 48 hrs post-infection measured after 14 days in presence of polymyxin B relative to control; format: functional; settings: time 14 day
Staphylococcus aureus [33] = experiment: as §3, with “reduction in TNF-alpha activity in skin” for “wound heal”, “by IHC analysis” for “in presence of polymyxin B relative to control”; format: functional, organism-based; settings: time 14.0 day
Staphylococcus aureus [34] = experiment: (§4) Antibacterial activity against methicillin-resistant Staphylococcus aureus ATCC 33591 infected in Balb/c mouse model of skin wound infection assessed as reduction in keratosis in wound surface at 10 mg/kg, ip administered thrice at 1, 24 and 48 hrs post-infection measured after 14 days by IHC analysis; format: functional, organism-based; settings: time 14.0 day
Staphylococcus aureus [35] = experiment: as §4, with “days in presence of polymyxin B” for “days”; format: functional, organism-based; settings: time 14.0 day

CCCCCCCCCCCC(=O)N[C@H](CCCNC(=N)N)C(=O)N[C@H](CCCNC(=N)N)C(=O)N[C@H](Cc1c[nH]c2ccccc12)C(=O)O
Retention_time [1]: 17.826 min
MIC (Staphylococcus aureus [2]): 4 µM (≈ 2.8 µg/mL)
MIC [3]: 2 µM (≈ 1.4 µg/mL)
MIC (Staphylococcus aureus [4]): 4 µM
MIC (Staphylococcus aureus [5]): 8 µM
fold change (FC) (Staphylococcus aureus [6]): <3
fold change (FC) (Staphylococcus aureus [7]): 8
Activity (Staphylococcus aureus [8]): Dose-dependent-effect
Activity (Staphylococcus aureus [9]): Active
Activity (Staphylococcus aureus [10]): inactive
MIC (Staphylococcus aureus [11]): 32 µM (≈ 22.4 µg/mL)
Activity (Staphylococcus aureus [12]): Active
Activity (Staphylococcus aureus [13]): Not active; Compound Activity Was Not Significant
Activity (Staphylococcus aureus [14]): inactive
Activity (Staphylococcus aureus [15]): inactive
Activity (Staphylococcus aureus [16]): Dose-dependent-effect; Compound Activity Was Slightly Weaker Than Triton X-100
Activity (Staphylococcus aureus [17]): Dose-dependent-effect
Activity (Staphylococcus aureus [18]): Dose-dependent-effect
survival at 168 h [19]: 100%
survival at 168 h [20]: 62.5%
Activity [21]: Non-toxic
Activity [22]: Non-toxic
Activity [23]: Non-toxic
Activity [24]: Toxic
Activity (Staphylococcus aureus [25]): Active
Activity (Staphylococcus aureus [26]): Active
Activity (Staphylococcus aureus [27]): Active
inhibition (Mus musculus): Active
Activity (Staphylococcus aureus [28]): Active
Activity (Staphylococcus aureus [29]): Active
Activity (Staphylococcus aureus [30]): Active
Activity (Staphylococcus aureus [31]): Active
Activity (Staphylococcus aureus [32]): 100%
Activity (Staphylococcus aureus [33]): Active
Activity (Staphylococcus aureus [34]): Active
Activity (Staphylococcus aureus [35]): Active
